The text below walks through data of ChEMBL document CHEMBL1129993, “Synthesis and biological characterization of 1,4,5,6-tetrahydropyrimidine and 2-amino-3,4,5,6-tetrahydropyridine derivatives as selective m1 agonists” (J Med Chem, 1997).

Experiment [1] addresses Muscarinic acetylcholine receptor M3 (Mus musculus) (UniProt Q9ERZ3). Nature of the experiment: Percent inhibition (high) of [3H](R)-QNB binding to Muscarinic acetylcholine receptor M3 expressed in A9 L cell line. The class given is cell-based. The note with it: A9L, concentration not given here.
The target is the same in experiment [2]. Nature of the experiment: Binding affinity (high) of [3H](R)-QNB binding to Muscarinic acetylcholine receptor M3 expressed in A9 L cell line. The settings on record: A9L. The class given is cell-based.
The target of experiment [3] is T1, Muscarinic acetylcholine receptor M2 (Mus musculus) (UniProt Q9ERZ4).
T1 sequence (whole entry): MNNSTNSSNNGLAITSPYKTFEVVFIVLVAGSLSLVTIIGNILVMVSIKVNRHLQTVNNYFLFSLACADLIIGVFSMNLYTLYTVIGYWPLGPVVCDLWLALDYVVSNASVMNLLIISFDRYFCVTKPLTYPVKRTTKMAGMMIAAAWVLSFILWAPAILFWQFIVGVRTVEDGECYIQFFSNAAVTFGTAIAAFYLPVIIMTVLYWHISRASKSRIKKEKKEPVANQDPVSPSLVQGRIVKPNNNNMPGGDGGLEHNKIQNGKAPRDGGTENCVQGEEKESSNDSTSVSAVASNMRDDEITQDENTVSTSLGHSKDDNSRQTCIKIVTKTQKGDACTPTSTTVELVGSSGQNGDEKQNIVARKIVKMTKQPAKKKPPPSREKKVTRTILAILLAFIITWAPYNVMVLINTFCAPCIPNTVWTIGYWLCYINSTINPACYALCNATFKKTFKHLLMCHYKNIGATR
The note with it: A9L.

Experiment [4] addresses Muscarinic acetylcholine receptor M3 (Mus musculus) (UniProt Q9ERZ3). The note with it: A9L.
Description: Binding affinity (low) of [3H](R)-QNB binding to Muscarinic acetylcholine receptor M3 expressed in A9 L cell line
Experiment [5] addresses T2, Muscarinic acetylcholine receptor M1 (Mus musculus) (UniProt P12657).
T2 sequence (whole entry): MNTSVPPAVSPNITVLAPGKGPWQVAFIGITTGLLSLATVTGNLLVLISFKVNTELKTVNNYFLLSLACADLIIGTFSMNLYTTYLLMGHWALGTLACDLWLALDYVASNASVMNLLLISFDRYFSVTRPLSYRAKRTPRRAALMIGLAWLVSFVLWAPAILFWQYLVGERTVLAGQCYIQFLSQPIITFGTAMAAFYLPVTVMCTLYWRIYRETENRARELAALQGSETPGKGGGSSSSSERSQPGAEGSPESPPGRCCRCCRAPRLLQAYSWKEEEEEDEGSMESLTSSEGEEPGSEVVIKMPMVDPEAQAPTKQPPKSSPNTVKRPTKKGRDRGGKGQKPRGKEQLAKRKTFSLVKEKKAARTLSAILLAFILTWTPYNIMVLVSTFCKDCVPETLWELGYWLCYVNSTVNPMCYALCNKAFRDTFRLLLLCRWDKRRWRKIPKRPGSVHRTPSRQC
Briefly: Percent inhibition (high) of [3H](R)-QNB binding to Muscarinic acetylcholine receptor M1 expressed in A9 L cell line in the absence of 300 uM GTP-gamma-S. It is filed as cell-based. The note with it: A9L.

Experiment [6] addresses T1, Muscarinic acetylcholine receptor M2 (Mus musculus). The settings on record: A9L. This is another data set of the same source.

Chain of Muscarinic acetylcholine receptor M3 (Mus musculus) (Q9ERZ3 whole entry): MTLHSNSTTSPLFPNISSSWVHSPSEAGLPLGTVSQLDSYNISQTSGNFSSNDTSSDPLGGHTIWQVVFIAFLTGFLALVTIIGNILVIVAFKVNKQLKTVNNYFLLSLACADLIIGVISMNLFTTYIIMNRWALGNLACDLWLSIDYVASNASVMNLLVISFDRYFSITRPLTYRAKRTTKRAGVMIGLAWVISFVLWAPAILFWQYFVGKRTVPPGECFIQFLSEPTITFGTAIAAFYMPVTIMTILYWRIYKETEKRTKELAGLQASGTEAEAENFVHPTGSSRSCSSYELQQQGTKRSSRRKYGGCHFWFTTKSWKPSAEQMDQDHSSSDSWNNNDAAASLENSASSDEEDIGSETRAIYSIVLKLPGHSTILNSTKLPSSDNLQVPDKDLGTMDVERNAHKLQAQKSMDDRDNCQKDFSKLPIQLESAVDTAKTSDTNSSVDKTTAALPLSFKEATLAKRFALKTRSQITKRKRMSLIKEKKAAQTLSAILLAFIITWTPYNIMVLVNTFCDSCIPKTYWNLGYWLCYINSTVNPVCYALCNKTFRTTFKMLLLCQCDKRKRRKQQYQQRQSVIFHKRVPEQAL

Consider `Cc1noc(C2=CCCN(C)C2)n1`, for which the inhibition (commonly the share of the control response that was lost under treatment) in experiment [1] stood at 29%. In experiment [2], this compound showed a KH of 16 nM. The KL is 0.087 nM in experiment [3] and 0.46 nM in experiment [4].
In experiment [5], `C#CCOC(=O)C1CN=CNC1` (stereo not given) showed an inhibition of 31.5%.
Still for that read-out and setting: the value for `CC#CCOC(=O)C1CN=CNC1` (stereo not given) was 23.4%.
`COC(=O)C1CN=CNC1` (stereo not given) showed an inhibition in experiment [5] of 23.5%. Moreover, the KL in experiment [3] and in experiment [4] was 3.3 nM each time.
`C#CCCOC(=O)C1CN=CNC1` (stereo not given) yielded an inhibition in experiment [5] of 23.2%.
As to `C[N+](C)(C)CCOC(N)=O`, the inhibition in experiment [1] came to 19%. Moreover, the figures for the KH in experiment [2] and in experiment [6] were 56 nM and 0.81 nM, respectively. The KL was 12 nM in experiment [3] and 8.4 nM in experiment [4].
In experiment [5], `CCCC#Cc1noc(C2CN=CNC2)n1` (stereo not given) showed an inhibition of 32.5%.
`Cc1noc(C2CN=CNC2)n1` (stereo not given): the inhibition in experiment [5] turned out to be 30.9%; in experiment [1], 95%. Moreover, the KL in experiment [3] was found to be 0.46 nM; in experiment [4], 0.57 nM.
